Assay results from patent publication US4771076A, “[(2-substituted 1,2-dihydro-1-oxo-1H-inden-5-yl)oxy]alkanesulfonic acids and salts thereof” (Merck & Co., Inc., priority 1987, dated 1988).

System: cerebrocortical cat brain tissue slice
Test: In vitro Cerebrocortical Cat Brain Tissue Slice Assay (inhibition of HCO3^- -stimulated swelling)
Type: cell-based
Settings: Felis catus, 1 h, 27 mM K^+, 10 mM HCO3^-, 37° C., 60 min incubation
Method: See, e.g., Bourke et al., Neurochem. Res., 8, 5 (1983), and Cragoe et al., J. Med. Chem., 25, 567 (1982).
In Vitro Cerebrocortical Cat Brain Tissue Slice Assay
Adult cats of 2-3 kg body weight were employed in tissue slice studies. Prior to sacrifice, the animals were anesthetized with ketamine hydrochloride, 10 mg/kg intramuscularly. Eight (three control, five experimental) pial surface cerebrocortical tissue slices (0.5 mm thick; approximately 150 mg initial fresh weight) were cut successively with a calibrated Stadie-Riggs fresh tissue microtome without moistening and weighed successively on a torsion balance. […]
Following the 60-minute incubation period, tissue slices were separated from incubation medium by filtration, reweighed, and homogenized in 1N HClO4 (10% w/v) for electrolyte analysis. […] Control slice swelling is expressed as microliters per gram initial preswelling fresh weight. The effectiveness of an inhibitor at a given concentration was measured by the amount of HCO3^- -stimulated swelling that occurred in its presence, computed as a percent of the maximum possible and is reported as an IC50, (See, e.g., Table I (Example 6)). Tissue and media Na^+ and K^+ levels were determined by emission flame photometry with Li^+ internal standard; Cl^- levels were determined by amperometric titration. Tissue viability during incubation is monitored by manometry.

Row | IC50 | SMILES
1 | 0.02 µM | CC1(C2CCCC2)Cc2cc(OCCCS(=O)(=O)O)c(Cl)c(Cl)c2C1=O (single isomer, unassigned) [Example 2, Sodium (+)3-[(6,7-dichloro-2-cyclopentyl-2-methyl-1-oxo-2,3-dihydro-1H-inden-5-yl)oxy]propanesulfonate hydrate]
2 | 0.02 µM | CC1(C2CCCC2)Cc2cc(OCCCS(=O)(=O)O)c(Cl)c(Cl)c2C1=O (centres unmarked) [Example 1, Sodium 3-[(6,7-dichloro-2-cyclopentyl-2-methyl-1-oxo-2,3-dihydro-1H-inden-5-yl)oxy]propanesulfonate hydrate]
